Measurements: ChEMBL document CHEMBL1139389, “Discovery of the Poly(ADP-ribose) polymerase (PARP) inhibitor 2-[(R)-2-methylpyrrolidin-2-yl]-1H-benzimidazole-4-carboxamide (ABT-888) for the treatment of cancer” (J Med Chem, 2009)

Columns and labels:
[1] = Volume of distribution at steady state in Sprague-Dawley rat at 5 mg/kg; format: ADME, organism-based; set-up: dose 5 mg/kg; conditions: in vivo, read-out: Vdss
[2] = Clearance in Sprague-Dawley rat at 5 mg/kg; format: ADME, organism-based; set-up: dose 5 mg/kg; conditions: in vivo
[3] = Oral bioavailability in Beagle dog at 2.5 mg/kg; format: ADME, organism-based, Canis lupus familiaris; conditions: in vivo
[4] = Half life in Beagle dog at 2.5 mg/kg, iv; format: ADME, organism-based, Canis lupus familiaris; set-up: dose 2.5 mg/kg, route intravenous; conditions: in vivo
[5] = AUC in Beagle dog at 2.5 mg/kg, po; format: ADME, organism-based, Canis lupus familiaris; set-up: dose 2.5 mg/kg, route oral; conditions: plasma
[6] = Cmax in Beagle dog at 2.5 mg/kg, po; format: ADME, organism-based, Canis lupus familiaris; set-up: dose 2.5 mg/kg, route oral; conditions: in vivo
[7] = Volume of distribution at steady state in Beagle dog at 2.5 mg/kg; format: ADME, organism-based, Canis lupus familiaris; set-up: dose 2.5 mg/kg; conditions: in vivo, read-out: Vdss
[8] = Clearance in Beagle dog at 2.5 mg/kg; format: ADME, organism-based, Canis lupus familiaris; set-up: dose 2.5 mg/kg; conditions: in vivo
[9] = Oral bioavailability in cynomolgus monkey at 2.5 mg/kg; format: ADME, organism-based, Macaca fascicularis; conditions: in vivo
[10] = Half life in cynomolgus monkey at 2.5 mg/kg, iv; format: ADME, organism-based, Macaca fascicularis; set-up: dose 2.5 mg/kg, route intravenous; conditions: in vivo
[11] = AUC in cynomolgus monkey at 2.5 mg/kg, po; format: ADME, organism-based, Macaca fascicularis; set-up: dose 2.5 mg/kg, route oral; conditions: plasma
[12] = Cmax in cynomolgus monkey at 2.5 mg/kg, po; format: ADME, organism-based, Macaca fascicularis; set-up: dose 2.5 mg/kg, route oral; conditions: in vivo
[13] = Volume of distribution at steady state in cynomolgus monkey at 2.5 mg/kg; format: ADME, organism-based, Macaca fascicularis; set-up: dose 2.5 mg/kg; conditions: in vivo, read-out: Vdss
[14] = Clearance in cynomolgus monkey at 2.5 mg/kg; format: ADME, organism-based, Macaca fascicularis; set-up: dose 2.5 mg/kg; conditions: in vivo
[15] = Water solubility of compound at physiological pH; format: physicochemical
[16] = target: T1, Cytochrome P450 1A2 (Homo sapiens, UniProt P05177); experiment: Inhibition of CYP1A2 in human liver microsomes; format: ADME, Microsome
T1 sequence (P05177 whole entry): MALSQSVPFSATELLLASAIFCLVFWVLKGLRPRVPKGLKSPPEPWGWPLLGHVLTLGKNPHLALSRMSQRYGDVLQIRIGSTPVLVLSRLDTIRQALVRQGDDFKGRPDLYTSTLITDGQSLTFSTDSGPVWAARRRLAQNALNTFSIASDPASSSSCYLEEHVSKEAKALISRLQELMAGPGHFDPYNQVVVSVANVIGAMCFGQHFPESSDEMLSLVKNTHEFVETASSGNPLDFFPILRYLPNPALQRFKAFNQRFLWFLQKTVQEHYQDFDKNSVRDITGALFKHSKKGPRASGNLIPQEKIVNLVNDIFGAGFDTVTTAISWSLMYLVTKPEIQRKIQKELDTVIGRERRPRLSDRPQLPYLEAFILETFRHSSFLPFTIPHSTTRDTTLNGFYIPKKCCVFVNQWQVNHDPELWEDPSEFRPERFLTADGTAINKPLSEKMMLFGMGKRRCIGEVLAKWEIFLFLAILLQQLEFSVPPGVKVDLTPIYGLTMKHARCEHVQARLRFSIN

[17] = target: T2, Cytochrome P450 2A6 (Homo sapiens, UniProt P11509); experiment: Inhibition of CYP2A6 in human liver microsomes; format: ADME, Microsome
T2 sequence (P11509 whole entry): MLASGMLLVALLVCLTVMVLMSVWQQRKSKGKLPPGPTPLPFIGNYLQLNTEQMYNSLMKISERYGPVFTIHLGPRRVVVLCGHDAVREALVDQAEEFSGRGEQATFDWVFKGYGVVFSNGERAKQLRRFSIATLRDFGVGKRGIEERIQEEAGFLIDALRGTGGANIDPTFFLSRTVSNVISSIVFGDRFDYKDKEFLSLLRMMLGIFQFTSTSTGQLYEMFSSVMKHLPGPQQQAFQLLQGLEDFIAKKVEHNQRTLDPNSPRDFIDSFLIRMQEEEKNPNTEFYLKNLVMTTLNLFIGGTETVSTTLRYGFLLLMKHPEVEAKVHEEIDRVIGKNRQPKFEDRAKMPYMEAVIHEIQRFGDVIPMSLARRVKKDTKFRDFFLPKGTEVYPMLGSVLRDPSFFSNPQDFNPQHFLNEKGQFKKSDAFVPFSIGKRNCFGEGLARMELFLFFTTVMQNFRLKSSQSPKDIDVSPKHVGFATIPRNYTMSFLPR

[18] = target: Cytochrome P450 2D6 (Homo sapiens, UniProt P10635); experiment: Inhibition of CYP2D6 in human liver microsomes; format: ADME, Microsome
Chain of Cytochrome P450 2D6 (P10635 whole entry): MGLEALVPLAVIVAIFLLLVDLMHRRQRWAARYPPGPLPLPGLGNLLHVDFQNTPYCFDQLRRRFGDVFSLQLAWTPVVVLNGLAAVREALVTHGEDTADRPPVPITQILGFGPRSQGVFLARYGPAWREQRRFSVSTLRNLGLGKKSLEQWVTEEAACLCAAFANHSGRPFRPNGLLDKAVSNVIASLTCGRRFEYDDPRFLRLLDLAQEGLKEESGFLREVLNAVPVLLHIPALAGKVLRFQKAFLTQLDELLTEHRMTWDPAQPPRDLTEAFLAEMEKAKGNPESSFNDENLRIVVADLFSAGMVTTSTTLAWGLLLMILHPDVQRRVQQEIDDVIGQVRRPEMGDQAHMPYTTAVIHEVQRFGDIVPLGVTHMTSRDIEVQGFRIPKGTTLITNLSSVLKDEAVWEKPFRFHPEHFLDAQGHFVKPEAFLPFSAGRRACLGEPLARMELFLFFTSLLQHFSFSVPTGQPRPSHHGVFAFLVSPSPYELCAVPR

[19] = target: Cytochrome P450 2C9 (Homo sapiens, UniProt P11712); experiment: Inhibition of CYP2C9 in human liver microsomes; format: ADME, Microsome
Chain of Cytochrome P450 2C9 (P11712 whole entry): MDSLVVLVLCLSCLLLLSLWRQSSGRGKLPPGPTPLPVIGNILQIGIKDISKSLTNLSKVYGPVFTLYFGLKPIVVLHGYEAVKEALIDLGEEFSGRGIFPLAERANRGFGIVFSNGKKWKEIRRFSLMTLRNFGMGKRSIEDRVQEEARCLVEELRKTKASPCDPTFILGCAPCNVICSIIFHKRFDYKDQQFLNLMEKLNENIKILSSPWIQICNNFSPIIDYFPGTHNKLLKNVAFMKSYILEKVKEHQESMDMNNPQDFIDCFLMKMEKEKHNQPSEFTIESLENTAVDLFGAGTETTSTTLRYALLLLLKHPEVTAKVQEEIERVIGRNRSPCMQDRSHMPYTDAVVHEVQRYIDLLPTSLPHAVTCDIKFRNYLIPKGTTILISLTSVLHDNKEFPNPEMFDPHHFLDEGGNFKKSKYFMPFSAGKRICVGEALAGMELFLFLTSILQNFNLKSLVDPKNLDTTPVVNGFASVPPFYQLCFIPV

[20] = target: Cytochrome P450 2C19 (Homo sapiens, UniProt P33261); experiment: Inhibition of CYP2C19 in human liver microsomes; format: ADME, Microsome
Chain of Cytochrome P450 2C19 (P33261 whole entry): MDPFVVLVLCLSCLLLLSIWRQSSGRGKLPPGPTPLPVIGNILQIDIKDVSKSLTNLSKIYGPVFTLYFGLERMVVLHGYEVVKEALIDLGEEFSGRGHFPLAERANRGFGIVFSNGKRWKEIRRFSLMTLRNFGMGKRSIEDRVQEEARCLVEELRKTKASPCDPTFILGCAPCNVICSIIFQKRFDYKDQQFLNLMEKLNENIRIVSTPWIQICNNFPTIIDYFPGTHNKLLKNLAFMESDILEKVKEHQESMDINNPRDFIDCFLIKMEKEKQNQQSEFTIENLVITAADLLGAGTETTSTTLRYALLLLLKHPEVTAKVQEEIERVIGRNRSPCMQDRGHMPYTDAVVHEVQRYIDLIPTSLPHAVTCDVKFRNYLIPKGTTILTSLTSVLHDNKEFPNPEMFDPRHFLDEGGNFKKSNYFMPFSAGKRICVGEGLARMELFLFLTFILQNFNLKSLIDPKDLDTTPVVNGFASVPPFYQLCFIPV

[21] = target: Cytochrome P450 2E1 (Homo sapiens, UniProt P05181); experiment: Inhibition of CYP2E1 in human liver microsomes; format: ADME, Microsome
Chain of Cytochrome P450 2E1 (P05181 whole entry): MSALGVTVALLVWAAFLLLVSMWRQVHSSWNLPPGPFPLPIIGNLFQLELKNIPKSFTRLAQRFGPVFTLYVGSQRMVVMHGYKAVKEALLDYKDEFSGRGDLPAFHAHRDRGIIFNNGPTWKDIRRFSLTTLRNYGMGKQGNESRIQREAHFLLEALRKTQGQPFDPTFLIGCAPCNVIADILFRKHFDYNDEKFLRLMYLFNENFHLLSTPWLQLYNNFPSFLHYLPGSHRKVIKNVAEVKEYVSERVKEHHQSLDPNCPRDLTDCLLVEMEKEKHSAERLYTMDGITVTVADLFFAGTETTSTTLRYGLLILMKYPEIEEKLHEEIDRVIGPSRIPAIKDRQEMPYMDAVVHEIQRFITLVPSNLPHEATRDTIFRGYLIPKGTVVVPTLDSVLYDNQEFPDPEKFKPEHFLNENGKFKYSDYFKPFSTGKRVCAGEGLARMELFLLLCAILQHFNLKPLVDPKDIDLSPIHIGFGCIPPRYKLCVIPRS

[22] = target: Cytochrome P450 3A4 (Homo sapiens, UniProt P08684); experiment: Inhibition of CYP3A4 in human liver microsomes; format: ADME, Microsome
Chain of Cytochrome P450 3A4 (P08684 whole entry): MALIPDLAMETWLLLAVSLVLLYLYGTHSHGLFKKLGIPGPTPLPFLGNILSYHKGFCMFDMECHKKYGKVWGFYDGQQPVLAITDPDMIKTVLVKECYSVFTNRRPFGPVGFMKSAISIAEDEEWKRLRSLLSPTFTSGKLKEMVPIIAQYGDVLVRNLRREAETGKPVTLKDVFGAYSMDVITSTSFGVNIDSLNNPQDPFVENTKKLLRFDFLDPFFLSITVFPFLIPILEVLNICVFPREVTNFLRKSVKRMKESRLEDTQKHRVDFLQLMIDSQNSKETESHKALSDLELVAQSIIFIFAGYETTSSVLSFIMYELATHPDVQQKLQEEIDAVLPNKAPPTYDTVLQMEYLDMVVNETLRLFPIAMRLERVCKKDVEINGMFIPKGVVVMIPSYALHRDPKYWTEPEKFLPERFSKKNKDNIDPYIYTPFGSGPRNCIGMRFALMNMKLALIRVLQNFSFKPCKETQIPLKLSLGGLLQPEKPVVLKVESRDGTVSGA

[23] = Protein binding in human plasma at 5 uM; format: ADME, cell-free; conditions: read-out: PPB (converted)
[24] = Protein binding in CD1 mouse plasma at 5 uM; format: ADME, cell-free; conditions: read-out: PPB (converted)
[25] = Protein binding in Sprague-Dawley rat plasma at 5 uM; format: ADME, cell-free; conditions: read-out: PPB (converted)

Vd [1]: 3.6 L/kg
clearance [2]: 33.3 mL/min/kg
bioavailability [3]: 72%
half-life [4]: 2.7 h
AUC [5]: 3200 ng·h/mL
Cmax [6]: 800 ng/mL
Vd [7]: 2.2 L/kg
clearance [8]: 10 mL/min/kg
bioavailability [9]: 56%
half-life [10]: 1.9 h
AUC [11]: 1300 ng·h/mL
Cmax [12]: 300 ng/mL
Vd [13]: 3.1 L/kg
clearance [14]: 18.3 mL/min/kg
solubility [15]: > 5000 µg/mL
Activity [16]: Not Active
Activity [17]: Not Active
Activity [18]: Not Active
Activity [19]: Not Active
Activity [20]: Not Active
Activity [21]: Not Active
Activity [22]: Not Active
fraction unbound at 5 µM [23]: 0.59
fraction unbound at 5 µM [24]: 0.59
fraction unbound at 5 µM [25]: 0.59
Structure (SMILES): C[C@]1(c2nc3c(C(N)=O)cccc3[nH]2)CCCN1 [VELIPARIB]
